In one test the test system is HCV genotype 1b replicon. The test can be described thus: HCV replicon assay, genotype 1b replicon EC50. Type of test: cell-based, Hepatitis C virus. The conditions noted are these: Hepatitis C virus, HCV replicon, genotype 1b, read-out: EC50 [gt-1b]. A digest of the protocol:
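Stable neomycin phosphotransferase-encoding replicon cell lines, kept under G418 selection beforehand, were plated with a compound dilution series without G418 and incubated 24-48 hours. Replicon RNA was then quantified, or luciferase activity read. EC50 was calculated as percent of DMSO control by four-parameter fit.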
(In antiviral work, replicon cells carry a viral genome segment that copies itself.)

Test [1] addresses HCV NS3/4A protease genotype 1b (Hepatitis C virus genotype 1b, UniProt P26663). In words: HCV NS3/4A protease time-resolved fluorescence (TRF) assay, Ki against genotype 1b. The format is biochemical. The conditions noted are these: IC50 [gt-1b], NS3/4A protease TRF assay, genotype 1b enzyme 0.2 nM. In a few lines:
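Ki was converted from fitted IC50 using IC50=Ki(1+[S]/KM) and 25 nM substrate. Protease (genotype 1b 0.2 nM, A156T 0.4 nM, 3a 0.025 nM) and compound were pre-mixed 30 min in pH 7.5 HEPES/NaCl/glycerol/DTT buffer. Cleavage then proceeded 2.5 h at room temperature, detected by time-resolved europium fluorescence (340/615 nm).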

Like-named read-outs stand apart in the source and are kept apart here.

A word on the EC50: it is the concentration giving half of the maximal effect. A word on the IC50: it is the point on the concentration scale where inhibition reaches its midpoint. With `CCc1nc2ccc(OCCCOC)cc2c2c1O[C@]1(CC2)C[C@H]2C(=O)N[C@]3(C(=O)NS(=O)(=O)C4(C)CC4)C[C@H]3/C=C\CCCCC[C@H](NC(=O)O[C@@H](C)C(C)C)C(=O)N2C1` [Example 487, (2S)-3-methylbutan-2-yl [(2R,6S,12Z,13aS,14aR,16aS)-5′-ethyl-9′-(3-methoxypropoxy)-14a-{[(1-methylcyclopropyl)sulfonyl]carbamoyl}-5,16-dioxo-1,1′,2′,5,6,7,8,9,10,11,13a,14,14a,15,16,16a-hexadecahydrospiro[cyclopropa[e]pyrrolo[1,2-a][1,4]diazacyclopentadecine-2,3′-pyrano[2,3-c]quinolin]-6-yl]carbamate], the EC50 in the test with HCV genotype 1b replicon (K+ salt) was 343 pM. In addition, in test [1] (K+ salt), the IC50 was found to be 5 pM.

Turning to `COc1ccc2nc(C(F)(F)F)c3c(c2c1)[C@](C)(O)C[C@]1(C[C@H]2C(=O)N[C@]4(C(=O)NS(=O)(=O)C5(C)CC5)C[C@H]4/C=C\CCCCC[C@H](NC(=O)OC(C)(C)C)C(=O)N2C1)O3` [Example 489, tert-butyl [(1′R,2S,6S,12Z,13aS,14aR,16aS)-1′-hydroxy-9′-methoxy-1′-methyl-14a-{[(1-methylcyclopropyl)sulfonyl]carbamoyl}-5,16-dioxo-5′-(trifluoromethyl)-1,1′,2′,5,6,7,8,9,10,11,13a,14,14a,15,16,16a-hexadecahydrospiro[cyclopropa[e]pyrrolo[1,2-a][1,4]diazacyclopentadecine-2,3′-pyrano[2,3-c]quinolin]-6-yl]carbamate], in the test on HCV genotype 1b replicon, the EC50 came to 4220 pM. In test [1], this compound gave an IC50 of 16 pM.

For the compound `CCc1nc2ccc(OC)cc2c2c1O[C@]1(CC2)C[C@H]2C(=O)N[C@]3(C(=O)NS(=O)(=O)C4(C)CC4)C[C@H]3/C=C\CCCCC[C@H](NC(=O)c3sccc3F)C(=O)N2C1` [Example 490, (2R,6S,12Z,13aS,14aR,16aS)-5′-ethyl-6-{[(3-fluorothiophen-2-yl)carbonyl]amino}-9′-methoxy-N-[(1-methylcyclopropyl)sulfonyl]-5,16-dioxo-1,1′,2′,6,7,8,9,10,11,13a,14,15,16,16a-tetradecahydrospiro[cyclopropa[e]pyrrolo[1,2-a][1,4]diazacyclopentadecine-2,3′-pyrano[2,3-c]quinoline]-14a(5H)-carboxamide], the EC50 with HCV genotype 1b replicon is 464 pM. The IC50 in test [1] was found to be 17 pM.

As for `CC(C)COC(=O)N[C@H]1CCCCC/C=C\[C@@H]2C[C@@]2(C(=O)NS(=O)(=O)C2(C)CC2)NC(=O)[C@@H]2C[C@]3(CCc4c(c(C(F)(F)F)nc5ccc(OCF)cc45)O3)CN2C1=O` [Example 491, 2-methylpropyl [(2R,6S,12Z,13aS,14aR,16aS)-9′-(fluoromethoxy)-14a-{[(1-methylcyclopropyl)sulfonyl]carbamoyl}-5,16-dioxo-5′-(trifluoromethyl)-1,1′,2′,5,6,7,8,9,10,11,13a,14,14a,15,16,16a-hexadecahydrospiro[cyclopropa[e]pyrrolo[1,2-a][1,4]diazacyclopentadecine-2,3′-pyrano[2,3-c]quinolin]-6-yl]carbamate], in the test on HCV genotype 1b replicon (K+ salt), the EC50 was determined as 2530 pM. Further, the IC50 in test [1] (K+ salt) was found to be 3 pM.

With `CC(C)(C)OC(=O)N[C@H]1CCCCC/C=C\[C@@H]2C[C@@]2(C(=O)NS(=O)(=O)C2(C)CC2)NC(=O)[C@@H]2C[C@]3(CCc4c(c(C(F)(F)F)nc5ccc(OCCO[Si](C)(C)C(C)(C)C)cc45)O3)CN2C1=O` [Example 492, tert-butyl [(2R,6S,12Z,13aS,14aR,16aS)-9′-(2-{[tert-butyl(dimethyl)silyl]oxy}ethoxy)-14a-{[(1-methylcyclopropyl)sulfonyl]carbamoyl}-5,16-dioxo-5′-(trifluoromethyl)-1,1′,2′,5,6,7,8,9,10,11,13a,14,14a,15,16,16a-hexadecahydrospiro[cyclopropa[e]pyrrolo[1,2-a][1,4]diazacyclopentadecine-2,3′-pyrano[2,3-c]quinolin]-6-yl]carbamate], the EC50 in the test with HCV genotype 1b replicon worked out at 1390 pM. This compound also returned an IC50 in test [1] of 44 pM.

In the case of `COc1ccc2nc(C(F)F)c3c(c2c1)CC[C@]1(C[C@H]2C(=O)N[C@]4(C(=O)NS(=O)(=O)C5(C)CC5)C[C@H]4/C=C\CCCCC[C@H](NC(=O)OC4(C)CCC4)C(=O)N2C1)O3` [Example 493, 1-methylcyclobutyl [(2R,6S,12Z,13aS,14aR,16aS)-5′-(difluoromethyl)-9′-methoxy-14a-{[(1-methylcyclopropyl)sulfonyl]carbamoyl}-5,16-dioxo-1,1′,2′,5,6,7,8,9,10,11,13a,14,14a,15,16,16a-hexadecahydrospiro[cyclopropa[e]pyrrolo[1,2-a][1,4]diazacyclopentadecine-2,3′-pyrano[2,3-c]quinolin]-6-yl]carbamate], the EC50 in the test on HCV genotype 1b replicon (K+ salt) came out at 283 pM. Moreover, in test [1] (K+ salt), the IC50 amounted to 3 pM.

As for `COCC1(S(=O)(=O)NC(=O)[C@@]23C[C@H]2/C=C\CCCCC[C@H](NC(=O)OCC2(C)CC2)C(=O)N2C[C@@]4(CCc5c(c(C(F)(F)F)nc6ccc(OC)cc56)O4)C[C@H]2C(=O)N3)CC1` [Example 494, (1-methylcyclopropyl)methyl [(2R,6S,12Z,13aS,14aR,16aS)-9′-methoxy-14a-({[1-(methoxymethyl)cyclopropyl]sulfonyl}carbamoyl)-5,16-dioxo-5′-(trifluoromethyl)-1,1′,2′,5,6,7,8,9,10,11,13a,14,14a,15,16,16a-hexadecahydrospiro[cyclopropa[e]pyrrolo[1,2-a][1,4]diazacyclopentadecine-2,3′-pyrano[2,3-c]quinolin]-6-yl]carbamate], the EC50 with HCV genotype 1b replicon turned out to be 1730 pM. Also, the IC50 in test [1] turned out to be 18 pM.

As to `COCC1(S(=O)(=O)NC(=O)[C@@]23C[C@H]2/C=C\CCCCC[C@H](NC(=O)OC2(C)CCC2)C(=O)N2C[C@@]4(CCc5c(c(C(F)(F)F)nc6ccc(OC)cc56)O4)C[C@H]2C(=O)N3)CC1` [Example 495, 1-methylcyclobutyl [(2R,6S,12Z,13aS,14aR,16aS)-9′-methoxy-14a-({[1-(methoxymethyl)cyclopropyl]sulfonyl}carbamoyl)-5,16-dioxo-5′-(trifluoromethyl)-1,1′,2′,5,6,7,8,9,10,11,13a,14,14a,15,16,16a-hexadecahydrospiro[cyclopropa[e]pyrrolo[1,2-a][1,4]diazacyclopentadecine-2,3′-pyrano[2,3-c]quinolin]-6-yl]carbamate], the EC50 with HCV genotype 1b replicon turned out to be 1450 pM. In addition, half-maximal inhibition in test [1] (IC50) required 7 pM.

For the compound `COCC1(S(=O)(=O)NC(=O)[C@@]23C[C@H]2/C=C\CCCCC[C@H](NC(=O)OCC(C)(C)C)C(=O)N2C[C@@]4(CCc5c(c(C(F)(F)F)nc6ccc(OC)cc56)O4)C[C@H]2C(=O)N3)CC1` [Example 496, 2,2-dimethylpropyl [(2R,65,12Z,13aS,14aR,16aS)-9′-methoxy-14a-({[1-(methoxymethyl)cyclopropyl]sulfonyl}carbamoyl)-5,16-dioxo-5′-(trifluoromethyl)-1,1′,2′,5,6,7,8,9,10,11,13a,14,14a,15,16,16a-hexadecahydrospiro[cyclopropa[e]pyrrolo[1,2-a][1,4]diazacyclopentadecine-2,3′-pyrano[2,3-c]quinolin]-6-yl]carbamate], the EC50 in the test with HCV genotype 1b replicon came out at 6930 pM. Moreover, in test [1], the IC50 is 27 pM.

On to `COCC1(S(=O)(=O)NC(=O)[C@@]23C[C@H]2/C=C\CCCCC[C@H](NC(=O)OCC(F)F)C(=O)N2C[C@@]4(CCc5c(c(C(F)(F)F)nc6ccc(OC)cc56)O4)C[C@H]2C(=O)N3)CC1` [Example 497, 2,2-difluoroethyl [(2R,6S,12Z,13aS,14aR,16aS)-9′-methoxy-14a-({[1-(methoxymethyl)cyclopropyl]sulfonyl}carbamoyl)-5,16-dioxo-5′-(trifluoromethyl)-1,1′,2′,5,6,7,8,9,10,11,13a,14,14a,15,16,16a-hexadecahydrospiro[cyclopropa[e]pyrrolo[1,2-a][1,4]diazacyclopentadecine-2,3′-pyrano[2,3-c]quinolin]-6-yl]carbamate], for which, in the test on HCV genotype 1b replicon, the EC50 came to 1940 pM. The IC50 in test [1] stood at 14 pM.

Turning to `COc1ccc2nc(C(F)(F)F)c3c(c2c1)CC[C@]1(C[C@H]2C(=O)N[C@]4(C(=O)NS(=O)(=O)C5(C)CC5)C[C@H]4/C=C\CCCCC[C@H](NC(=O)OCC4(C)CC4)C(=O)N2C1)O3` [Example 498, (1-methylcyclopropyl)methyl [(2R,6S,12Z,13aS,14aR,16aS)-9′-methoxy-14a-{[(1-methylcyclopropyl)sulfonyl]carbamoyl}-5,16-dioxo-5′-(trifluoromethyl)-1,1′,2′,5,6,7,8,9,10,11,13a,14,14a,15,16,16a-hexadecahydrospiro[cyclopropa[e]pyrrolo[1,2-a][1,4]diazacyclopentadecine-2,3′-pyrano[2,3-c]quinolin]-6-yl]carbamate], the EC50 in the test with HCV genotype 1b replicon (K+ salt) was found to be 607 pM. Also, the half-maximal inhibitory concentration (IC50) in test [1] (K+ salt) stood at 9 pM.

As to `COc1ccc2nc(C(F)(F)F)c3c(c2c1)CC[C@]1(C[C@H]2C(=O)N[C@]4(C(=O)NS(=O)(=O)C5(C)CC5)C[C@H]4/C=C\CCCCC[C@H](NC(=O)OCC(F)F)C(=O)N2C1)O3` [Example 499, 2,2-difluoroethyl [(2R,6S,12Z,13aS,14aR,16aS)-9′-methoxy-14a-{[(1-methylcyclopropyl)sulfonyl]carbamoyl}-5,16-dioxo-5′-(trifluoromethyl)-1,1′,2′,5,6,7,8,9,10,11,13a,14,14a,15,16,16a-hexadecahydrospiro[cyclopropa[e]pyrrolo[1,2-a][1,4]diazacyclopentadecine-2,3′-pyrano[2,3-c]quinolin]-6-yl]carbamate], the EC50 with HCV genotype 1b replicon (K+ salt) amounted to 433 pM. Further, the concentration for half-maximal inhibition (IC50) in test [1] (K+ salt) was 4 pM.
